Test results: publication PMC12203697, “Bioactive constituents from the edible seaweed Halymenia hawaiiana (Rhodophyta)” (Pharmaceutical Biology, 2025)
Converted amounts (≈) assume the structure as drawn. Counter-ions that a name gives are not always drawn. Like-named read-outs stand apart in the source and are kept apart here. Blank lines part the entries; values can stand above or below the molecule they belong to.

Assays:
S. marcescent = assay: Antibacterial MIC, broth microdilution with resazurin; assay type: cell-based, Serratia marcescens; settings: Gram-negative
Excerpt: (§1) Methicillin-resistant Staphylococcus aureus (MRSA), methicillin-susceptible S. aureus (MSSA), and Gram-negative clinical isolates of bacteria [Escherichia coli (9637) and Serratia marcescens ATCC 13880] were used for this study. […] MSSA HBP10, MSSA LUU7, MSSA R113, S. aureus ONE9, and MSSA POB2 were isolated in Hawaiʻi (Gerken et al. [2021]). Mueller Hinton Broth (MHB, GTIN:00382902979630, Becton, Dickinson and Company, Franklin Lakes, NJ, USA) and Mueller Hinton Agar (MHA, GTIN:00382902252504, Becton, Dickinson and Company, Franklin Lakes, NJ, USA,) were used for bacterial inoculation. MRSA was a pathogen strain causing hospital-acquired infections in 1982. This strain easily acquires resistance to antibiotics, such as vancomycin. MSSA strains isolated from the Island of Hawaiʻi included: Honolʻii Beach Park (HBP10) carry the genes erm(C), aph(3′)-III, and mecA, which provide resistance to macrolide, aminoglycoside, and beta-lactam antibiotics, respectively; Wailuku River (LUU7) which contains the blaZ gene (beta-lactam resistance) (Gerken et al. [2021]). Richardson’s Beach Park (R113) and Onekahakaha (ONE9) which is known for its virulence factors (hlgA, hlgB, hlgC, lukD, and lukE).
(§2) The minimum inhibitory concentrations (MICs) were determined using a two-fold serial dilution method with MHB following the recommendations of the Clinical and Laboratory Standards Institute (CLSI [2012]; Elshikh et al. [2016]). In brief, serial two-fold dilutions of the samples in DMSO were mixed with MHB in a 96-well microplate. Then, 50 µL of bacteria suspension was added to each well, resulting in a final concentration of 1 × 10^4 colony-forming units/well. The plates were incubated at 35–37 °C for 18–24 hr. After incubation, 10 µL of 0.18% resazurin (Cat. No. R7017, Sigma-Aldrich, USA) was added to each well (Elshikh et al. [2016]). The MIC was assessed within 2–3 hr after the addition of resazurin. All antimicrobial assays were performed in triplicate, using vancomycin (Cat. No. SBR00001, Sigma-Aldrich, USA) and gentamicin (Cat. No. G1397, Sigma-Aldrich, USA) as standard controls.

[1] = Ferric-reducing antioxidant power (FRAP) assay
Procedure: The FRAP assay was used to evaluate antioxidant activity based on the ability of the sample to reduce Fe^3+-TPTZ (2,4,6-tris(2-pyridyl)-S-triazine) to Fe^2+-TPTZ (Benzie and Strain [1996]). This reduction results in a color change from colorless to blue. The absorbance was measured at 593 nm using a Microplate Reader (BioTek ELx800 Instruments Inc. Winooski, Vermont, USA) with the Gen 5 software for FRAP value calculations. A ferrous sulfate heptahydrate (FeSO4 · 7H2O) (Cat. No. 215422, Sigma-Aldrich, USA) standard curve, ranging from 1000 µM to 50 µM, was prepared for the assay. The FRAP reagent consists of 300 mM sodium acetate buffer (pH 3.6) (Cat. No. 90358, Sigma-Aldrich, USA), 10 mM TPTZ solution (Cat. No. T1253, Sigma-Aldrich, USA), and 20 mM ferric (III) chloride hexahydrate (FeCl3 · 6H2O) (Cat. No. 236489, Sigma-Aldrich, USA) in a 10:1:1 ratio, respectively, and heated to 37 °C for ten minutes before use. A blank was measured at 593 nm with 150 µL FRAP reagent added to each well of a 96-well microtiter plate. Samples (20 µL of each sample) (1, 0.5, 0.25 mg/mL) and ascorbic acid (Sigma-Aldrich, Cat. No. A4403) positive control (1 mg/mL) were added in triplicates. Reducing capacity was expressed by FRAP values in an µM FeSO4/µg sample unit.

MRSA HBP10 = assay: Antibacterial MIC, broth microdilution with resazurin; assay type: cell-based, Staphylococcus aureus
Excerpt: as §1, §2

MRSA POB2 = assay: as above; assay type: cell-based, Staphylococcus aureus
Excerpt: as §1, §2

E. coli = assay: as above; assay type: cell-based; settings: Escherichia coli, Gram-negative
Excerpt: as §1, §2

[2] = test system: LPS-induced nitric oxide (NO) production in RAW 264.7 cells; assay: Inhibition of NO generation in LPS-induced RAW 264.7 cells (Griess); assay type: cell-based, murine; settings: Mus musculus, RAW264.7; RAW 264.7 cells, LPS 1 μg/mL, adjusted for cell viability; read-out: IC50, inhibition of LPS-induced NO production
Procedure: The nitrite concentration in the culture medium was measured to indicate nitric oxide (NO) production as previously described (Min et al. [2009]). The murine macrophage RAW 264.7 cell line was obtained from ATCC, Manassas, VA, USA, and maintained in Dulbecco’s modified Eagle’s medium supplemented with 10% heat-inactivated FBS (Cat. No. A5670801, Gibco BRL Co, Grand Island, NY, USA), penicillin G (100 units/mL) (Cat. No. P7794, Sigma-Aldrich, USA), streptomycin (100 µg/mL) (Cat. No. S9137, Sigma-Aldrich, USA), and L-glutamine (2 mM) (Cat. No. 25030081, Gibco BRL Co, Grand Island, NY, USA). In brief, RAW 264.7 cells were seeded at a density of 4 × 10^4 cells/well in phenol red-free media (Cat. No. 11835030, Gibco, USA) in a 96-well plate, and incubated in a humidified incubator with 5% CO2 at 37 °C for 24 hr. […] The concentration of nitric oxide production was assessed using the Griess reagent, which consists of a 1:1 (v/v) mixture of 1% sulfanilamide (Cat No. A13001, Alfa Aesar, Massachusetts, USA) in H3PO4 and N-(1-naphthyl)ethylenediamine dihydrochloride (Cat. No. 102397, MP Biomedicals, USA). Absorbance was recorded with a microplate reader (SynergyMx, BioTeK, Winooski, VT, USA) at 540 nm. A standard curve was created using sodium nitrite (1–100 μM) (Cat. No. 44227, Alfa Aesar, Massachusetts, USA). A sulforhodamine B (SRB) assay was employed to assess the cellular viability of the samples with RAW 264.7 cells under a similar experimental setup. The final % inhibition of NO production was adjusted based on cell viability.

S. aureus NEWMAN = assay: Antibacterial MIC, broth microdilution with resazurin; assay type: cell-based, Staphylococcus aureus; settings: Staphylococcus aureus, NEWMAN
Excerpt: as §1, §2

S. aureus CART817 = assay: as above; assay type: cell-based; settings: Staphylococcus aureus, CART817
Procedure: as §2

S. aureus ONE9 = assay: as above; assay type: cell-based; settings: Staphylococcus aureus, ONE9
Excerpt: as §1, §2

S. aureus 8325-4 = assay: as above; assay type: cell-based; settings: Staphylococcus aureus, 83254
Excerpt: as §1, §2

MRSA USA300 = assay: as above; assay type: cell-based; settings: Staphylococcus aureus
Excerpt: as §1, §2

MSSA R113 = assay: as above; assay type: cell-based; settings: Staphylococcus aureus, MSSA
Excerpt: as §1, §2

MSSA LUU7 = assay: as above; assay type: cell-based; settings: Staphylococcus aureus, MSSA
Excerpt: as §1, §2

[3] = test system: A549 human lung carcinoma epithelial cells; assay: SRB cytotoxicity assay, A549 cells; settings: read-out: IC50, cytotoxicity against A549 cells; SRB assay, 72 h exposure
Procedure: After incubation, cells were fixed with trichloroacetic acid (Cat. No. T4885, Sigma-Aldrich, USA), stained with SRB (Cat. No. S9012, Sigma-Aldrich, USA), and the absorbance was measured at 515 nm. Percent cell death was calculated using the following equation: % Cell death=(ODc−OD0)‐(ODs−OD0)/(ODc−OD0)×100
OD0 = Optical density of cells before treatment (baseline reading).
ODC = Optical density of untreated control cells after 72 h.
ODS = Optical density of cells treated with the test sample after 72 h.
Non-linear regression analysis was performed using GraphPad Prism to calculate the IC50 value. This value reflects the concentration needed to inhibit cell growth by 50%.
All data are presented as mean ± standard error of the mean (SEM) and were collected from three separate experiments. Statistical analyses were conducted using Student’s t-test or ANOVA, followed by Tukey’s multiple comparisons test. Significance is indicated by *p < 0.05, **p < 0.01, and ***p < 0.001.

Compound: CCCCCCCCC1CC1CCCCCCCC(=O)O (stereo not drawn) [Compound 7, dihydrosterculic acid]
MIC (S. marcescent): Inactive
FRAP ([1]; FeSO4 standard curve): 230.06 µM
FRAP ([1]; µM FeSO4/µg sample): 2.88 ± 0.03 µM/µg
MIC (MRSA HBP10; MRSA HBP10, Gram-positive): Inactive
MIC (MRSA POB2; MRSA POB2, Gram-positive): Inactive

Compound: [H]/N=C(/NC)NCCC[C@H](N)C(=O)O [L-NMMA, L-N-Monomethyl Arginine citrate, reference compound]
IC50 [2]: 43.5 ± 1.8 µM

Compound: CN[C@H](CC(C)C)C(=O)N[C@H]1C(=O)N[C@@H](CC(N)=O)C(=O)N[C@H]2C(=O)N[C@H]3C(=O)N[C@H](C(=O)N[C@H](C(=O)O)c4cc(O)cc(O)c4-c4cc3ccc4O)[C@H](O)c3ccc(c(Cl)c3)Oc3cc2cc(c3O[C@@H]2O[C@H](CO)[C@@H](O)[C@H](O)[C@H]2O[C@H]2C[C@](C)(N)[C@H](O)[C@H](C)O2)Oc2ccc(cc2Cl)[C@H]1O [Vancomycin, vancomycin, reference compound]
MIC (S. aureus NEWMAN): 0.5 µg/mL (≈ 0.345 µM)
MIC (MRSA HBP10; Staphylococcus aureus, MRSA): 1 µg/mL (≈ 0.69 µM)
MIC (MRSA POB2; Staphylococcus aureus, MRSA): 0.5 µg/mL (≈ 0.345 µM)
MIC (S. aureus CART817): 1 µg/mL (≈ 0.69 µM)
MIC (S. aureus ONE9): 0.5 µg/mL (≈ 0.345 µM)
MIC (S. aureus 8325-4): 0.5 µg/mL (≈ 0.345 µM)
MIC (MRSA USA300): 0.5 µg/mL (≈ 0.345 µM)
MIC (MSSA R113): 0.5 µg/mL (≈ 0.345 µM)
MIC (MSSA LUU7): 0.5 µg/mL (≈ 0.345 µM)

Compound: N.N.[Cl][Pt][Cl] [cisplatin, Cisplatin, reference compound]
IC50 [3]: 4.2 ± 0.3 µM

More lines, now with the values ahead:

MIC (S. marcescent): Inactive
MIC (MRSA HBP10; MRSA HBP10, Gram-positive): Inactive
MIC (MRSA POB2; MRSA POB2, Gram-positive): Inactive
Compound: CCCCCCCC/C=C/CCCCCCC(O)C(=O)OC (stereo not drawn) [Compound 8, methyl (9E)-2-hydroxy-9-octadecenoate]

MIC (S. marcescent; Serratia marcescens, read-out: MIC): 0.25 µg/mL (≈ 0.523 µM)
MIC (E. coli): 0.25 µg/mL (≈ 0.523 µM)
Compound: CNC(C)C1CCC(N)C(OC2C(N)CC(N)C(OC3OCC(C)(O)C(NC)C3O)C2O)O1 (stereo not drawn) [Gentamicin, gentamicin, reference compound]
